{
  "source": "patent US20090306135A1",
  "about": "(priority 2008, published 2009)",
  "key": {"[1]": {"excerpt": "X-Ray tube with Cu target anode Divergence slits 1 0, Receiving slit 0.15 mm, Scatter slit 1 0 Power: 40 KV, 100 mA; Scanning speed: 2 degree/minute step: 0.02 degree; Wave length: 1.5406 A; Spray Dryer: PST01"}, "[2]": {"experiment": "Storage stability at 25 ± 2° C. and 60 ± 5% RH", "assay_type": "physicochemical"}, "[3]": {"conditions": "40 ± 2° C. and 75 ± 5% RH, 1 Month"}, "[4]": {"conditions": "40 ± 2° C. and 75 ± 5% RH, 2 Month"}, "[5]": {"conditions": "40 ± 2° C. and 75 ± 5% RH, 3 Month"}, "[6]": {"conditions": "40 ± 2° C. and 75 ± 5% RH, Initial"}, "[7]": {"conditions": "40 ± 2° C. and 75 ± 5% RH (Using BHA), 1 Month"}, "[8]": {"conditions": "40 ± 2° C. and 75 ± 5% RH (Using BHA), 2 Month"}, "[9]": {"conditions": "40 ± 2° C. and 75 ± 5% RH (Using BHA), Initial"}},
  "note": "Where two headings read alike, the source gives them in different places.",
  "data": [
    {"smiles": "CC(C)(C(=O)O)c1ccc(C(O)CCCN2CCC(C(O)(c3ccccc3)c3ccccc3)CC2)cc1.Cl", "note": "(racemic) [amorphous fexofenadine hydrochloride, (±)-4-[1 hydroxy-4-[4-(hydroxydiphenylmethyl)-1-piperidinyl]-butyl]-α,α-dimethyl benzeneacetic acid hydrochloride]", "values": [
      {"measurement": "time for which the product is stable", "setting": "[1]; different storage conditions (Tables 1-3)", "result": "≥ 3", "unit": "months"}
    ]},
    {"smiles": "CC(C)(C(=O)O)c1ccc(C(O)CCCN2CCC(C(O)(c3ccccc3)c3ccccc3)CC2)cc1.Cl", "note": "(racemic) [Example 1, (±)-4-[1 hydroxy-4-[4-(hydroxydiphenylmethyl)-1-piperidinyl]-butyl]-α,α-dimethyl benzeneacetic acid hydrochloride]", "values": [
      {"measurement": "Assay by HPLC", "setting": "[2]; 3 Month", "result": 99.4, "unit": "% w/w on dried basis"},
      {"measurement": "Description", "setting": "[2]; 3 Month", "result": "White Powder"},
      {"measurement": "Possible impurities Comp-A", "setting": "[2]; 3 Month", "result": 0.050},
      {"measurement": "Related Subs", "setting": "[2]; 3 Month", "result": 0.213, "unit": "% w/w"},
      {"measurement": "XRD", "setting": "[2]; 3 Month", "result": "Complies"},
      {"measurement": "Assay by HPLC", "setting": "[2]; 6 Month", "result": 98.8, "unit": "% w/w on dried basis"},
      {"measurement": "Description", "setting": "[2]; 6 Month", "result": "White Powder"},
      {"measurement": "Possible impurities Comp-A", "setting": "[2]; 6 Month", "result": 0.040},
      {"measurement": "Related Subs", "setting": "[2]; 6 Month", "result": 0.186, "unit": "% w/w"},
      {"measurement": "XRD", "setting": "[2]; 6 Month", "result": "Complies"},
      {"measurement": "Assay by HPLC", "setting": "[2]; 9 Month", "result": 100.2, "unit": "% w/w on dried basis"},
      {"measurement": "Description", "setting": "[2]; 9 Month", "result": "White Powder"},
      {"measurement": "Possible impurities Comp-A", "setting": "[2]; 9 Month", "result": 0.039},
      {"measurement": "Related Subs", "setting": "[2]; 9 Month", "result": 0.171, "unit": "% w/w"},
      {"measurement": "XRD", "setting": "[2]; 9 Month", "result": "Complies"},
      {"measurement": "Assay by HPLC", "setting": "[2]; Initial", "result": 99.0, "unit": "% w/w on dried basis"},
      {"measurement": "Description", "setting": "[2]; Initial", "result": "White Powder"},
      {"measurement": "Possible impurities Comp-A", "setting": "[2]; Initial", "result": 0.049},
      {"measurement": "Related Subs", "setting": "[2]; Initial", "result": 0.188, "unit": "% w/w"},
      {"measurement": "XRD", "setting": "[2]; Initial", "result": "Complies"},
      {"measurement": "Assay by HPLC", "setting": "[1]; [3]", "result": 99.4, "unit": "% w/w on dried basis"},
      {"measurement": "Description", "setting": "[1]; [3]", "result": "White Powder"},
      {"measurement": "Possible impurities Comp-A", "setting": "[1]; [3]", "result": 0.050},
      {"measurement": "Related Subs", "setting": "[1]; [3]", "result": 0.201, "unit": "% w/w"},
      {"measurement": "XRD", "setting": "[1]; [3]", "result": "Complies"},
      {"measurement": "Assay by HPLC", "setting": "[1]; [4]", "result": 98.7, "unit": "% w/w on dried basis"},
      {"measurement": "Description", "setting": "[1]; [4]", "result": "White Powder"},
      {"measurement": "Possible impurities Comp-A", "setting": "[1]; [4]", "result": 0.047},
      {"measurement": "Possible impurities ME-pF (Methyl ester of p-fexofenadine)", "setting": "[1]; [4]", "result": 0.002},
      {"measurement": "Possible impurities TRS-1", "setting": "[1]; [4]", "result": 0.008},
      {"measurement": "Related Subs", "setting": "[1]; [4]", "result": 0.237, "unit": "% w/w"},
      {"measurement": "XRD", "setting": "[1]; [4]", "result": "Complies"},
      {"measurement": "Assay by HPLC", "setting": "[1]; [5]", "result": 99.3, "unit": "% w/w on dried basis"},
      {"measurement": "Description", "setting": "[1]; [5]", "result": "White Powder"},
      {"measurement": "Possible impurities Comp-A", "setting": "[1]; [5]", "result": 0.053},
      {"measurement": "Related Subs", "setting": "[1]; [5]", "result": 0.203, "unit": "% w/w"},
      {"measurement": "XRD", "setting": "[1]; [5]", "result": "Complies"},
      {"measurement": "Assay by HPLC", "setting": "[1]; [6]", "result": 99.0, "unit": "% w/w on dried basis"},
      {"measurement": "Description", "setting": "[1]; [6]", "result": "White Powder"},
      {"measurement": "Possible impurities Comp-A", "setting": "[1]; [6]", "result": 0.049},
      {"measurement": "Related Subs", "setting": "[1]; [6]", "result": 0.188, "unit": "% w/w"},
      {"measurement": "XRD", "setting": "[1]; [6]", "result": "Complies"}
    ]},
    {"smiles": "CC(C)(C(=O)O)c1ccc(C(O)CCCN2CCC(C(O)(c3ccccc3)c3ccccc3)CC2)cc1.Cl", "note": "(racemic) [Example 2, (±)-4-[1 hydroxy-4-[4-(hydroxydiphenylmethyl)-1-piperidinyl]-butyl]-α,α-dimethyl benzeneacetic acid hydrochloride]", "values": [
      {"measurement": "Assay by HPLC", "setting": "[1]; [7]", "result": 99.6, "unit": "% w/w on dried basis"},
      {"measurement": "Description", "setting": "[1]; [7]", "result": "White powder"},
      {"measurement": "Possible impurities Comp-A", "setting": "[1]; [7]", "result": 0.069},
      {"measurement": "Possible impurities ME-mF (Methyl ester of m-fexofenadine)", "setting": "[1]; [7]", "result": 0.023},
      {"measurement": "Possible impurities TRS-1", "setting": "[1]; [7]", "result": 0.008},
      {"measurement": "Related Subs", "setting": "[1]; [7]", "result": 0.227, "unit": "% w/w"},
      {"measurement": "XRD", "setting": "[1]; [7]", "result": "Complies"},
      {"measurement": "Assay by HPLC", "setting": "[1]; [8]", "result": 99.3, "unit": "% w/w on dried basis"},
      {"measurement": "Description", "setting": "[1]; [8]", "result": "White powder"},
      {"measurement": "Possible impurities Comp-A", "setting": "[1]; [8]", "result": 0.067},
      {"measurement": "Possible impurities ME-mF (Methyl ester of m-fexofenadine)", "setting": "[1]; [8]", "result": 0.019},
      {"measurement": "Possible impurities TRS-1", "setting": "[1]; [8]", "result": 0.009},
      {"measurement": "Related Subs", "setting": "[1]; [8]", "result": 0.218, "unit": "% w/w"},
      {"measurement": "XRD", "setting": "[1]; [8]", "result": "Complies"},
      {"measurement": "Assay by HPLC", "setting": "[1]; [9]", "result": 99.3, "unit": "% w/w on dried basis"},
      {"measurement": "Description", "setting": "[1]; [9]", "result": "White powder"},
      {"measurement": "Possible impurities Comp-A", "setting": "[1]; [9]", "result": 0.071},
      {"measurement": "Possible impurities ME-mF (Methyl ester of m-fexofenadine)", "setting": "[1]; [9]", "result": 0.023},
      {"measurement": "Related Subs", "setting": "[1]; [9]", "result": 0.219, "unit": "% w/w"},
      {"measurement": "XRD", "setting": "[1]; [9]", "result": "Complies"}
    ]}
  ]
}
